{
  "source": "patent US20250302714A1",
  "about": "“ORAL HEALTH AGENT AND COMPOSITION FOR USE IN DOMESTIC ANIMALS” (priority 2022, published 2025)",
  "test_system": "canine oral microbiome",
  "experiment": "Controlled clinical study in beagles: oral swab sequencing of the canine oral microbiome",
  "type": "in vivo, dog (beagles)",
  "conditions": "14 beagles, arginine powder mixture (1.5% L-arginine) twice daily after meals, 28 days post dental cleaning, oral swabs, global sequencing",
  "method": "In vitro and in vivo studies were required to assert the activity of arginine in oral care of domestic animals. […] Controlled clinical studies were performed in 14 beagles fed an arginine powder mixture (Table 2) twice daily after meals. Dental assessments were performed using photographic inspection after the application of a biofilm disclosing agent. Animals were fed the mixture for 28 days prior to final assessment. Oral swab samples were collected at days 0, 7, 14 and 28 and subjected to global sequencing studies.\nIn this study bacterial populations were clustered and plotted in separate figures. Data was obtained after 28 days of treatment post dental cleaning.",
  "data": [
    {"smiles": "N=C(N)NCCC[C@H](N)C(=O)O", "note": "[arginine, L-arginine]", "values": [
      {"measurement": "relative abundance of oral bacterial populations, treated vs control animals", "value": "shift towards healthy oral bacterial populations"}
    ]}
  ]
}
